Target: T1, human HSL (Homo sapiens, UniProt Q05469)
T1 construct: overlapping PCR to generate a full length human HSL ORF with a 3′-His6 tag; His6 (C); made in house; host or cells: High 5 insect cells (baculovirus, pFast-BAC)
T1 sequence (Q05469 1-1076): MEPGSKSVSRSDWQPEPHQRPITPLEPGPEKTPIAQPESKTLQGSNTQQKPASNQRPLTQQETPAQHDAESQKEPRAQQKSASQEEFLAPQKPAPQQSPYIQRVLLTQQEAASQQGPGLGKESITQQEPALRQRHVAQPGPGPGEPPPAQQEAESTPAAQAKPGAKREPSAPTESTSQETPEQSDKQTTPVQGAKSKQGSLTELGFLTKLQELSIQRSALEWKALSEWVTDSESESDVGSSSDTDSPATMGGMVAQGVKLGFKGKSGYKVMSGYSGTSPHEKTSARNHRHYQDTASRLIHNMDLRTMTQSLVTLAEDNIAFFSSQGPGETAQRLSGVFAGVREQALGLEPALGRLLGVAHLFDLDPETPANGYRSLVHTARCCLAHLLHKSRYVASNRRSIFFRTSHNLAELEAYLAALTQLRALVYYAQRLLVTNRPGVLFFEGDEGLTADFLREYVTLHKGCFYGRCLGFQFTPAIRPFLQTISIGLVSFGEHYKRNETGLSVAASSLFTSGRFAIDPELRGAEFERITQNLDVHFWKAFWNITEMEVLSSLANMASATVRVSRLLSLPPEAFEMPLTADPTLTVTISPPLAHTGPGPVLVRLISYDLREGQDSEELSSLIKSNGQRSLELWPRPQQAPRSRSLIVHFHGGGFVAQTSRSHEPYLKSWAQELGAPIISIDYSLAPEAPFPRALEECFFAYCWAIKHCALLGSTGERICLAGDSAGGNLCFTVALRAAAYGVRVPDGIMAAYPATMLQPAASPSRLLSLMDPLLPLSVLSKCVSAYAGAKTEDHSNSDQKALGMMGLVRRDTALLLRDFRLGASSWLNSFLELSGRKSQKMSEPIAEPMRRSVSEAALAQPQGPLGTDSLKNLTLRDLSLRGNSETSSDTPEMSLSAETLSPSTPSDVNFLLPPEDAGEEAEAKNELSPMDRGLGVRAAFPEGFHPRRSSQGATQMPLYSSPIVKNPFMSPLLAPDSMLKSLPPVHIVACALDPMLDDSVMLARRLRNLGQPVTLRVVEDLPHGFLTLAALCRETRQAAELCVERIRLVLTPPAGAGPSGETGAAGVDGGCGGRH
Assay: Human Hormone-Sensitive Lipase (HSL) Enzyme Inhibition Assay
Format: biochemical
Conditions: colorimetric assay, 2,3-dimercapto-1-propanol tributyrate (DMPT) substrate, 37° C. for 20 minutes, absorbance at 405 nm; read-out: HSL hum IC50
Protocol: Production of Human Full Length Hormone Sensitive Lipase-His^6
1) Cloning: cDNA was prepared from commercial human brain polyA-+ RNA and used as a template in overlapping PCR to generate a full length human HSL ORF with a 3′-His6 tag. This full length insert was cloned into the pFast-BAC vector and the DNA-sequence of several single clones was verified. DNA from a correct full length clone with the 3′His6 tag was used to transform the E. coli strain DH10BAC. Resulting bacmid DNA was used to generate a titered baculovirus stock for protein generation.
Cells were thawed. […] was done at 3×30 sec., Lubrol PX was added to 0.2% final concentration followed by stirring for 15 min. at 4° C. and centrifugation at 25 k×g, 60 min., 4° C. […] Supernatant was removed, the resin washed in the centrifuge vessel using 5 volumes of Base Buffer containing 0.2% Lubrol PX. Centrifugation was done again, then the supernatant discarded. The resin wass poured onto a 0.8 μm membrane in a disposable filter unit (Nalge 450-0080), and washed with 5 volumes of Base Buffer containing 0.2% Lubrol PX. It was then washed with 30 volumes of Base Buffer containing 60 mM imidazole pH 7.5 at 4° C. The protein was eluated with 5 volumes of 25 mM Tris-Cl, 300 mM NaCl, 200 mM imidazole, 10 mM 2-mercaptoethanol, pH 7.5 at 4° C. by tumbling resin with buffer end-over-end, 30 min., 4° C. The resin was captured on a 0.2 μm membrane disposable filter unit (Millipore SCGP U02 RE) and the eluate collected in the reservoir. The eluate was concentrated using a 30 k MWCO centrifugal filter device (Sartorius Vivascience Vivacell 100, VC1022), to 20 ml. It was then dialyzed overnight at 4° C., two times against 2 L of 10% glycerol, 25 mM Tris-Cl, 300 mM NaCl, 0.2 mM EDTA, 0.2 mM DTT, pH 7.5 at 4° C. The protein was filtered using a 0.22 μm disposable filter unit (Millipore SCGP00525). The protein concentration was calculated from absorbance at 280 nm, using 280=0.67 cm-1 mg-1. […] The protein was stored at −80° C.
Human Hormone-Sensitive Lipase (HSL) Enzyme Inhibition Assay:
HSL enzyme activity was measured by a colorimetric assay using 2,3-dimercapto-1-propanol tributyrate (Aldrich, St. Louis, Mo.) as a substrate. Typically, 1.5 mM 2,3-dimercapto-1-propanol tributyrate (DMPT) in 100 mM MOPS, pH 7.2, 0.2 mg/ml fatty acid-free BSA was prepared by sonication at 4° C. to homogenous suspension. Test compounds (2 mM stock in DMSO) were diluted 3 fold in series in DMSO. Compound solutions were diluted 24 fold in 1.5 mM DMPT containing solution and 18 ul per well was added to 384-well microplates (Corning Costar). Twelve microliters per well of human HSL (15 ug/ml) was added and the reaction mixture was incubated at 37° C. for 20 minutes. Six microliters of 12 mM dithio-bis-(2-nitrobenzoic acid) (DTNB) in DMSO plus 1.2% SDS and 0.6% Triton X-100 were added and the mixture was incubated at room temperature for 15 minutes. Product production was monitored by reading absorbance at 405 nm on an Envision Reader (PerkinElmer Life and Analytical Sciences, Shelton, Conn.).

| Compound | IC50 |
| --- | --- |
| CCC(C)c1ccc(N2CCC3(CCN(C(=O)CC(C)(C)C)CC3)C2=O)cc1 (stereo not shown) [Example 46, 2-(4-sec-Butyl-phenyl)-8-(3,3-dimethyl-butyryl)-2,8-diaza-spiro[4.5]decan-1-one] | 150 nM |
| O=C1N(CCc2ccc(Cl)cc2)CCC12CCN(S(=O)(=O)c1ccccc1Cl)CC2 [Example 47, 8-(2-Chloro-benzenesulfonyl)-2-[2-(4-chloro-phenyl)-ethyl]-2,8-diaza-spiro[4.5]decan-1-one] | 40 nM |
| CS(=O)(=O)Oc1ccc(N2CCC3(CCN(S(=O)(=O)c4ccccc4Cl)CC3)C2=O)cc1 [Example 48, Methanesulfonic acid 4-[8-(2-chloro-benzenesulfonyl)-1-oxo-2,8-diaza-spiro[4.5]dec-2-yl]-phenyl ester] | 30 nM |
| O=C1N(Cc2ccc(OC(F)(F)F)cc2)CCC12CCN(S(=O)(=O)c1ccccc1Cl)CC2 [Example 49, 8-(2-Chloro-benzenesulfonyl)-2-(4-trifluoromethoxy-benzyl)-2,8-diaza-spiro[4.5]decan-1-one] | 150 nM |
| Cc1ccc(S(=O)(=O)N2CCC3(CCN(c4ccc(OS(C)(=O)=O)cc4)C3=O)CC2)s1 [Example 50, Methanesulfonic acid 4-[8-(5-methyl-thiophene-2-sulfonyl)-1-oxo-2,8-diaza-spiro[4.5]dec-2-yl]-phenyl ester] | 60 nM |
| CS(=O)(=O)c1ccccc1S(=O)(=O)N1CCC2(CCN(c3ccc(OC(F)(F)F)cc3)C2=O)CC1 [Example 51, 8-(2-Methanesulfonyl-benzenesulfonyl)-2-(4-trifluoromethoxy-phenyl)-2,8-diaza-spiro[4.5]decan-1-one] | 140 nM |
| CCc1ccc(N2CCC3(CCN(S(=O)(=O)c4ccccc4S(C)(=O)=O)CC3)C2=O)cc1 [Example 52, 2-(4-Ethyl-phenyl)-8-(2-methanesulfonyl-benzenesulfonyl)-2,8-diaza-spiro[4.5]decan-1-one] | 210 nM |
| CC(C)(C)CS(=O)(=O)N1CCC2(CCN(c3ccc(OS(C)(=O)=O)cc3)C2=O)CC1 [Example 53, Methanesulfonic acid 4-[8-(2,2-dimethyl-propane-1-sulfonyl)-1-oxo-2,8-diaza-spiro[4.5]dec-2-yl]-phenyl ester] | 110 nM |
| CCc1ccc(N2CCC3(CCN(S(=O)(=O)c4ccccc4OC(F)(F)F)CC3)C2=O)cc1 [Example 54, 2-(4-Ethyl-phenyl)-8-(2-trifluoromethoxy-benzenesulfonyl)-2,8-diaza-spiro[4.5]decan-1-one] | 30 nM |
| O=C1N(c2ccc(OC(F)(F)F)cc2)CCC12CCN(S(=O)(=O)c1ccccc1OC(F)(F)F)CC2 [Example 55, 8-(2-Trifluoromethoxy-benzenesulfonyl)-2-(4-trifluoromethoxy-phenyl)-2,8-diaza-spiro[4.5]decan-1-one] | 20 nM |
| CS(=O)(=O)Oc1ccc(N2CCC3(CCN(S(=O)(=O)c4ccccc4OC(F)(F)F)CC3)C2=O)cc1 [Example 56, Methanesulfonic acid 4-[1-oxo-8-(2-trifluoromethoxy-benzenesulfonyl)-2,8-diaza-spiro[4.5]dec-2-yl]-phenyl ester] | 20 nM |
| CCCc1ccc(N2CCC3(CCN(S(=O)(=O)c4ccccc4S(C)(=O)=O)CC3)C2=O)cc1 [Example 57, 8-(2-Methanesulfonyl-benzenesulfonyl)-2-(4-propyl-phenyl)-2,8-diaza-spiro[4.5]decan-1-one] | 140 nM |
| CCCc1ccc(N2CCC3(CCN(S(=O)(=O)c4ccccc4OC(F)(F)F)CC3)C2=O)cc1 [Example 58, 2-(4-Propyl-phenyl)-8-(2-trifluoromethoxy-benzenesulfonyl)-2,8-diaza-spiro[4.5]decan-1-one] | 40 nM |
| CS(=O)(=O)Oc1ccc(N2CCC3(CCN(S(=O)(=O)c4cccs4)CC3)C2=O)cc1 [Example 59, Methanesulfonic acid 4-[1-oxo-8-(thiophene-2-sulfonyl)-2,8-diaza-spiro[4.5]dec-2-yl]-phenyl ester] | 30 nM |
| CC(C)CS(=O)(=O)N1CCC2(CCN(c3ccc(CC(F)(F)F)cc3)C2=O)CC1 [Example 60, 8-(2-Methyl-propane-1-sulfonyl)-2-[4-(2,2,2-trifluoro-ethyl)-phenyl]-2,8-diaza-spiro[4.5]decan-1-one] | 40 nM |
| CCC(C)c1ccc(N2CCC3(CCN(S(=O)(=O)CC(C)C)CC3)C2=O)cc1 (stereo not shown) [Example 61, 2-(4-sec-Butyl-phenyl)-8-(2-methyl-propane-1-sulfonyl)-2,8-diaza-spiro[4.5]decan-1-one] | 70 nM |
| CC(C)CS(=O)(=O)N1CCC2(CCN(c3ccc(OS(C)(=O)=O)cc3)C2=O)CC1 [Example 62, Methanesulfonic acid 4-[8-(2-methyl-propane-1-sulfonyl)-1-oxo-2,8-diaza-spiro[4.5]dec-2-yl]-phenyl ester] | 250 nM |
| CC(C)CS(=O)(=O)N1CCC2(CCN(c3ccc(OCC(F)(F)F)cc3)C2=O)CC1 [Example 63, 8-(2-Methyl-propane-1-sulfonyl)-2-[4-(2,2,2-trifluoro-ethoxy)-phenyl]-2,8-diaza-spiro[4.5]decan-1-one] | 210 nM |
| CC(C)CS(=O)(=O)N1CCC2(CCN(c3ccc(OS(=O)(=O)C4CC4)cc3)C2=O)CC1 [Example 64, Cyclopropanesulfonic acid 4-[8-(2-methyl-propane-1-sulfonyl)-1-oxo-2,8-diaza-spiro[4.5]dec-2-yl]-phenyl ester] | 220 nM |
| CC(C)CS(=O)(=O)N1CCC2(CCN(c3ccc(C4CC4)cc3)C2=O)CC1 [Example 65, 2-(4-Cyclopropyl-phenyl)-8-(2-methyl-propane-1-sulfonyl)-2,8-diaza-spiro[4.5]decan-1-one] | 100 nM |
| CC(C)CS(=O)(=O)N1CCC2(CCN(c3ccc(OC4CCCC4)cc3)C2=O)CC1 [Example 66, 2-(4-Cyclopentyloxy-phenyl)-8-(2-methyl-propane-1-sulfonyl)-2,8-diaza-spiro[4.5]decan-1-one] | 160 nM |
| CCc1ccc(N2CCC3(CCN(S(=O)(=O)c4ccccc4C(F)(F)F)CC3)C2=O)cc1 [Example 67, 2-(4-Ethyl-phenyl)-8-(2-trifluoromethyl-benzenesulfonyl)-2,8-diaza-spiro[4.5]decan-1-one] | 60 nM |
